The nature of this data set: Stabilisation of amidines in aqueous solution by alkane polyols.

Excerpt: The compositions of the present invention also comprise an alkane polyol having an N-octanol/water partition coefficient (ClogP) of from +0.2 to +1.55. […] The ClogP values of these materials indicate their hydrophilic/lipophilic balance. Alkane polyols having a ClogP value of between +0.2 and +1.55 are slightly lipophilic, enabling them to interact with the amidines. However, the alkane polyols herein maintain a high enough solubility in water due to the presence of the hydroxy moieties to allow them to maintain the amidine in solution.

In the case of `CCCC(O)CO` (centres unmarked) [1,2 Pentanediol], the “Stabilises Amidines?” value was “No”.
On to `CCCCCC(O)CO` (centres unmarked) [1,2-heptanediol], for which the “Stabilises Amidines?” value is “Yes”.
With `CCCCC(O)CO` (centres unmarked) [1,2-hexanediol], the “Stabilises Amidines?” value was “Yes”.
The value for `CCCCCCC(O)CO` (centres unmarked) [1,2-octanediol] was “Yes”.
For the compound `OCCCCCCCO` [1,7-heptanediol], the “Stabilises Amidines?” value is “Yes”.
As for `OCCCCCCCCCO` [1,9-nonanediol], the “Stabilises Amidines?” value is “Yes”.
`OCCCCCCCCCCO` [1,10-decanediol]: the “Stabilises Amidines?” value is reported as “No”.
For `CC(O)CCC(C)O` (centres unmarked) [2,5-hexanediol], the “Stabilises Amidines?” value is given as “No”.

The record behind these values is patent publication US20040228820A1, “Compositions comprising an amidine and an alkane polyol” (The Procter & Gamble Company, priority 2003, published 2004).
